Legend:
[1] = Initial phase I clinical studies, safety of oral doses; assay type: in vivo, human
Description: Initial phase I clinical studies were carried out to assess the safety of oral doses of [D-MeAla]^3-[EtVal]^4-CsA, and to determine the pharmacokinetic profile and safety profile of the drug substance. […] These side effects were not dose-related.

[2] = system: myoblast cultures from UCMD patients; assay: Mitochondrial TMRM fluorescence (membrane potential) after oligomycin in myoblast cultures from UCMD patients; assay type: cell-based, human; conditions: muscle cell cultures from UCMD patients
Description: To assess whether the anti-apoptotic effects of collagen VI and CsA could be traced to mitochondria, mitochondrial function was studied in living muscle cell cultures. […] Addition of oligomycin was instead followed by mitochondrial depolarization in the cells from all UCMD patients. […] Mitochondrial membrane potential was assessed based on accumulation of tetramethylrhodamine methyl ester (TMRM). It is noted that oligomycin was expected to cause hyperpolarization in healthy, respiring cells in which the mitochondrial membrane potential is maintained by proton pumping by the respiratory chain and the proton electrochemical gradient is used to drive ATP synthesis.
Panels A and B of FIG. 1 show mitochondrial membrane potentials in myoblasts from UCMD patients 1 (A) and 4 (B) as a function of time. Mitochondrial membrane potential was measured based on accumulation of tetramethylrhodamine methyl ester (TMRM). […] The extent of cell and, consequently, mitochondrial loading with potentiometric probes is affected by the activity of the plasma membrane multidrug resistance pump which is inhibited by cyclosporin A. Treatment with cyclosporins may therefore cause an increased mitochondrial fluorescence that can be erroneously interpreted as an increase of mitochondrial membrane potential. […] Data were acquired and analyzed using Cell R software (Olympus). […] Apoptosis was assessed as described before.

UCMD and BM patients = assay: Preliminary clinical trial, TMRM assay on muscle biopsies of UCMD and BM patients; assay type: in vivo, human; conditions: daily oral dose of 5 mg/kg for thirty days
Description: Five patients were enroIled, of which four suffered from UCMD and one of BM. The patients had mutation in their COL6A1, COL6A2 or COL6A3 genes, respectively. The trial was designed to test whether treatment with CsA was effective in reducing mitochondrial dysfunction as assessed by the ability of oligomycin to cause mitochondrial depolarization in muscle fibers. Depolarization was detected as a change in TMRM fluorescence. Patients were treated with a daily oral dose of 5 mg/kg CsA for a period of thirty days. Muscle biopsies were taken immediately before and after the treatment period and were processed for TMRM assay.

[3] = system: muscle cell cultures from UCMD patients and healthy donors; assay: Electron microscopy of mitochondria in muscle cell cultures; assay type: cell-based, human; conditions: for percentage of cells with swollen mitochondria: oligomycin treatment
Excerpt: The muscle cell cultures established from healthy donors and from patients 1, 2 and 3 were studied by electron microscopy.

[4] = system: myoblast cultures from UCMD patients; assay: TUNEL incidence of apoptosis in myoblast cultures from UCMD patients; assay type: cell-based, human; conditions: myoblast cultures from UCMD patients 1-4
Description: Experiments were carried out to experimentally test the existence of a causal link between lack of collagen VI and apoptosis. Myoblast cultures were prepared from muscle biopsies of two unaffected controls and from patients 1, 2, 3 and 4 by enzymatic and mechanical treatment and plating in Dulbecco's modified Eagle's medium (DMEM) supplemented with 20% fetal calf serum, penicillin, streptomycin and amphotericin B (Sigma). To test for apoptosis, cells were fixed in 50% acetone-50% methanol and processed for TUNEL analysis using the Dead End Fluorescence TUNEL System (Promega). Visualization of all nuclei was performed by staining with Hoechst 33258. […] Demir et al. 2002. Giusti et al. 2005.
Panels A and B of FIG. 1 show mitochondrial membrane potentials in myoblasts from UCMD patients 1 (A) and 4 (B) as a function of time. Mitochondrial membrane potential was measured based on accumulation of tetramethylrhodamine methyl ester (TMRM). […] The extent of cell and, consequently, mitochondrial loading with potentiometric probes is affected by the activity of the plasma membrane multidrug resistance pump which is inhibited by cyclosporin A. Treatment with cyclosporins may therefore cause an increased mitochondrial fluorescence that can be erroneously interpreted as an increase of mitochondrial membrane potential. […] Data were acquired and analyzed using Cell R software (Olympus). […]

C/C=C/C[C@@H](C)[C@@H](O)[C@H]1C(=O)N[C@@H](CC)C(=O)N(C)[C@H](C)C(=O)N(CC)[C@@H](C(C)C)C(=O)N[C@@H](C(C)C)C(=O)N(C)[C@@H](CC(C)C)C(=O)N[C@@H](C)C(=O)N[C@H](C)C(=O)N(C)[C@@H](CC(C)C)C(=O)N(C)[C@@H](CC(C)C)C(=O)N(C)[C@@H](C(C)C)C(=O)N1C [[D-MeAla]^3-[EtVal]^4-CsA]
tolerability ([1]; oral doses of 50 to 1600 mg in a micro-emulsion in water): well tolerated
side effects ([1]; oral doses of 50 to 1600 mg, not dose-related): Mild and short-lived side effects were observed including nausea, vomiting, abdominal pain, and mild headaches

cyclosporin A
response to oligomycin (mitochondrial depolarization, TMRM) [2]: fully normalized
mitochondrial dysfunction as assayed by oligomycin-induced depolarization (UCMD and BM patients): capable of substantially reducing mitochondrial dysfunction
muscle cells depolarizing on oligomycin, subsequent to treatment (UCMD and BM patients; average of five patients, 90% prior to treatment): 37%
number of cells with swollen mitochondria ([3]; UCMD cells, no oligomycin): decreased the number of cells with swoIlen mitochondria to the values observed in cultures from healthy donors
percentage of cells bearing swollen mitochondria after oligomycin ([3]; oligomycin-treated cultures plus cyclosporin A): restored to values similar to basal
occurrence of apoptosis (TUNEL) in the patient samples [4]: fully normalized the occurrence of apoptosis

CC[C@H]1/C=C/C=C/C[C@@H](C)[C@H](O)[C@@](C)(O)C(=O)[C@@H](C)[C@H](O)[C@@H](C)C(=O)[C@@H](C)[C@H](O)[C@@H](C)/C=C/C(=O)O[C@@H]2[C@H](C)[C@H](CC1)O[C@]1(CC[C@H](C)[C@H](C[C@@H](C)O)O1)[C@H]2C [oligomycin]
percentage of cells with swollen mitochondria ([3]; control (healthy donor) cultures): 4%
percentage of cells with swollen mitochondria ([3]; cultures from UCMD patients): over 40%

CC(=O)OCOC(=O)CN(CC(=O)OCOC(C)=O)c1ccccc1OCCOc1ccccc1N(CC(=O)OCOC(C)=O)CC(=O)OCOC(C)=O [BAPTA-AM]
response to oligomycin (mitochondrial depolarization, TMRM) [2]: fully normalized

— patent publication US8450281B2, “Non-immunosuppressive cyclosporin for treatment of Ullrich congenital muscular dystrophy” (Debiopharm S.A., priority 2007, dated 2013)
